{
  "source": "patent US10144727B2",
  "about": "“Deoxynojirimycin derivatives and methods of their using” (priority 2013, dated 2018)",
  "key": {"[1]": {"details": "100 mg/kg oral TID; for Survival without a viral challenge: uninfected, n=3"}, "[2]": {"test_system": "influenza A/Texas/36/91 (H1N1)", "experiment": "Efficacy of selected iminosugars in mice; Influenza A/Texas/36/91 (H1N1) challenge", "assay_type": "in vivo, BALB/c mice", "details": "for Survival versus untreated/vehicle control group / MTD / Survival rate: 100 mg/kg oral TID for 10 days; for MTD / Survival rate: infected ~1 LD90", "description": "(§1) Study Summary: This study analyzed the toxicity and efficacy of UV-8, UV-9, UV-10, UV-11, and UV-12 in mice during an H1N1 influenza infection. […] In the current study, we examined delivery doses of UV-4B. UV-8, UV-9, UV-10. UV-11 and UV-12 at 100 mg/kg, delivered ter in die by the oral route (intragastric via oral gavage or IG. Small groups (n=3) that were included to examine gross toxicity received 100 mg/kg of the iminosugars but without a viral challenge. UV-4B, UV-8. UV-9, UV-10. UV-11 or UV-12 was delivered to the animals starting at 1 hour before intranasal infection (IN) with ˜1 LD90 of influenza A/Texas/36/91 (H1N1). Animals were then treated TID for 10 days total (days 0-9 post infection). Efficacy was evaluated by comparing survival, temperature changes, and weight gain/loss to an infected untreated control group.\nThis study aimed to determine the efficacy of UV-8. UV-9, UV-10, UV-11, and UV-12 when administered orally at 100 mg/kg TID against a lethal intranasal infection with influenza virus A/Texas/36/91 (H1N1) in the BALB/c mouse model. In addition to the efficacy arm, each of the iminosugars was tested in a small group of animals with the same treatment regimen (100 mg/kg, oral gavage, TID) in the absence of a viral infection to examine gross toxicity of each analog (general health, weight, temperature, and mortality evaluations).\nUV-8, -9, -10, -11, -12, and UV-4B were prepared in H2O at 20 mg/ml for a delivery dose of 100 mg/kg, assuming ˜20 g mice given 0.1 mL of compound. Groups of BALB/c mice were treated at one hour before (−1 h) intranasal infection with ˜1 LD90 of INFV A/Texas/36/91 (H1N1) and then compounds were administered three times daily for a total of 10 days (see Table 12 for study design summary). Weights, temperature, and survival were monitored and used for evaluation of protective efficacy and toxicity of each analog.\n3. The groups of mice challenged with influenza were anesthetized with 5% Isofluorene and maintained at 2.5% prior to intranasal inoculation with ˜1 LD90 of INFV in 100 μL PBS.\n1. Mice were treated starting at 1 hour before infection with 100 μL of compound in H2O (see Table 12 for dosing regimens) three times a day for 10 days total with 100 mg/kg of UV-4B, UV-8, UV-9, UV-10, UV-11, or UV-12 compound given by the oral route (intragastric via oral gavage). 2. After dosing, mice were returned to their cages and monitored for any distress related to dosing.\n(§2) 1. Mice were observed through 13 days post infection (14 days total, 0-13 days post infection).\n(§3) 2. Mice were weighed daily on an Ohause scale and the weights were recorded.\n3. All animals had chips implanted that monitored the body temperature. The temperatures were recorded daily.\n4. Survival and health of each mouse was evaluated three times a day using a scoring system of 1-7.\n5. Mice were euthanized when scored at 5 or above (Very Sick; Very Rufftled Coat; Closed, inset eyes; Slow to no movement; Will return to upright position if put on its side; extremely lethargic)."}, "[3]": {"test_system": "H1N1", "experiment": "Previous studies: oral UV-4B TID at 100 mg/kg against H1N1", "assay_type": "in vivo", "details": "oral TID at 100 mg/kg", "description": "as §1"}, "[4]": {"test_system": "influenza A/Texas/36/91 (H1N1)", "experiment": "Efficacy of UV-12 and UV-28 against lethal INFV A/Texas/36/91 (H1N1) challenge in mice", "assay_type": "in vivo, BALB/c mice", "details": "for % Survival / Mean Survival: ~1LD90 intranasal; for Health score recovery of infected mice: 100 mg/kg TID; for Weight recovery of infected mice: treated infected mice", "description": "Study Summary: This study tested the ability of iminosugars UV-12 and UV-28 to protect mice from lethal influenza infection (˜1LD90 of influenza A/Texas/36/91 (H1N1) administered intranasally). Compounds were delivered 30-60 minutes prior to viral challenge via the oral (IG) route at 100 or 40 mg/kg and continued three times daily for 10 days. The mice used were ˜20 gram, 6-8 week old female BALB/c mice in groups of 10 for efficacy (a summary of the study groups is shown in Table 1). Temperature and weights were taken daily. Endpoint was day 14 post infection, death, or euthanasia. Animals displaying severe illness as determined by >30% weight loss, extreme lethargy, or paralysis were euthanized.\nThis study tested the ability of UV-12 and UV-28 to protect mice from lethal influenza infection. The mice used were 6-8 week old female BALB/c mice in groups of 10 (see Table 5 below). Mice were treated with 100 or 40 mg/kg three times daily (TID) via IG route starting approximately 30-60 minutes prior to challenge. Mice were challenged with ˜1 LD90 of influenza A/Texas/36/91 (H1N1) administered intranasally (IN). Endpoint was day 14 post infection, death, or euthanasia. Animals displaying severe illness as determined by >30% weight loss, extreme lethargy, or paralysis were euthanized. Temperature and weights were taken daily.\n3. The groups of mice challenged with INFV were infected via intranasal (IN) inoculation with ˜1×LD90 in 100 μL of a 1:500 dilution of INFV in PBS under light anesthesia (Isoflurane).\n1. Mice were treated with 100 or 40 mg/kg of test article given by the IG route in 100 μL of water (see Table 5 for dosing regimens) three times daily for 10 days.\nas §2, §3\n3. All animals had chips implanted at least 3 days prior to virus challenge that monitored the body temperature. The temperatures were recorded daily.\n4. Survival and health of each mouse was evaluated once time a day using a scoring system of 1-7.\nFIG. 1 is a plot presenting survival data of infected mice grouped by treatment. The survival data plotted in FIG. 1 were analyzed using the Mantel-Cox (Log rank) test in GraphPad Prism."}, "[5]": {"test_system": "DENV2 Strain S221", "experiment": "Survival analysis of UV-12 in A129 ADE model of dengue infection", "assay_type": "in vivo, A129 mice", "details": "100 mg/kg/dose orally 3x per day for 7 days, first dose 1 hr before IV challenge", "source_text": "Purpose: This study determined the efficacy of UV-12 in promoting survival of mice challenged with dengue virus. Compound were given by the oral route (3× per day intragastric via oral gavage—IG) for a total number of 7 days after the start of dosing. The experiment used the A129 ADE model of infection. (Prestwood T R, Morar M M, Zellweger R M, Miller R, May M M, Yauch L E, Lada S M. Shresta S. Gamma interferon (IFN-γ) receptor restricts systemic dengue virus replication and prevents paralysis in IFN-α/β receptor-deficient mice. J Virol. 2012 December; 86(23):12561-70.) Animals received the virus challenge dose ˜1 LD90 on day 0. The first dose was given 0.5-1 hr pre-virus challenge. Survival was measured until 30 days after infection.\nMice: Sex matched 5-6 weeks old A129 (129/SV IFN-α, -β receptor^−/−)\nIminosugar: Orally 3× day, (gavage (IG)) every 8 hours\nAntibody and Iminosugar Compound were given simultaneously, then virus within 30 minutes\nAntibody: 100 μg 2H2 (IgG2a anti-DENV1-4 prM) from ATCC, day 0 and day 1 in 40 ul\nVirus: DENV2 Strain S221 (v512) (Zellweger R M, Prestwood T R, Shresta S.\nDose: 1E11 GE (genomic equivalents) per animal\nAnimal survival. Animals displaying severe illness (as determined by 20% weight loss, extreme lethargy, ruffled coat, or paralysis) are euthanized.\nFIG. 5 presents results of this study. […]"}},
  "note": "Entries after “also recorded” stand apart in the source; their conditions may differ.",
  "data": [
    {"smiles": "OCCCCCCCCCN1C[C@H](O)[C@@H](O)[C@H](O)[C@H]1CO", "note": "[UV-11]", "values": [
      {"measurement": "Survival without a viral challenge", "setting": "[1]", "value": 100, "unit": "%"},
      {"measurement": "Survival versus untreated/vehicle control group", "setting": "[2]", "value": "did not show any improvement in survival"},
      {"measurement": "MTD", "setting": "[2]", "value": 8, "unit": "days"},
      {"measurement": "Survival rate", "setting": "[2]", "value": 0, "unit": "%"}
    ]},
    {"smiles": "COCCCCCCCOC(=O)N1C[C@H](O)[C@@H](O)[C@H](O)[C@H]1CO", "note": "[UV-9]", "values": [
      {"measurement": "Survival without a viral challenge", "setting": "[1]", "value": 100, "unit": "%"},
      {"measurement": "Survival versus untreated/vehicle control group", "setting": "[2]", "value": "did not show any improvement in survival"},
      {"measurement": "MTD", "setting": "[2]", "value": 7, "unit": "days"},
      {"measurement": "Survival rate", "setting": "[2]", "value": 0, "unit": "%"}
    ]},
    {"smiles": "COCCCCCCCCC(=O)N1C[C@H](O)[C@@H](O)[C@H](O)[C@H]1CO", "note": "[UV-8]", "values": [
      {"measurement": "Survival without a viral challenge", "setting": "[1]", "value": 100, "unit": "%"},
      {"measurement": "Survival versus untreated/vehicle control group", "setting": "[2]", "value": "did not show any improvement in survival; also recorded: no significant difference from the vehicle control group"},
      {"measurement": "MTD", "setting": "[2]", "value": 10.5, "unit": "days"},
      {"measurement": "Survival rate", "setting": "[2]", "value": 30, "unit": "%"}
    ]},
    {"smiles": "COCCCCCCCCCN1C[C@H](O)[C@@H](O)[C@H](O)[C@H]1CO", "note": "[UV-4B, N-9-methoxynonyl-deoxynojirimycin, reference compound]", "values": [
      {"measurement": "Survival versus untreated/vehicle control group", "setting": "[2]", "value": "significant increase in survival"},
      {"measurement": "Survival rate", "setting": "[2]", "value": 100, "unit": "%"},
      {"measurement": "Efficacy against H1N1", "setting": "[3]", "value": "resulted in efficacy"},
      {"measurement": "Signs of toxicity", "setting": "[3]", "value": "did not show any discernible signs of toxicity"}
    ]},
    {"smiles": "COC(C)(C)CCCCCCCCN1C[C@H](O)[C@@H](O)[C@H](O)[C@H]1CO", "note": "[UV-28]", "values": [
      {"measurement": "% Survival", "setting": "[4]; 40 mg/kg TID IG for 10 days", "value": 60, "unit": "%"},
      {"measurement": "Mean Survival", "setting": "[4]; 40 mg/kg TID IG for 10 days", "value": ">13", "unit": "days"},
      {"measurement": "% Survival", "setting": "[4]; 100 mg/kg TID IG for 10 days", "value": 100, "unit": "%"},
      {"measurement": "Mean Survival", "setting": "[4]; 100 mg/kg TID IG for 10 days", "value": ">13", "unit": "days"},
      {"measurement": "Health score recovery of infected mice", "setting": "[4]; FIG. 4", "value": "never recovered their health score"},
      {"measurement": "Toxicity compared (health scores)", "setting": "[4]; FIG. 4", "value": "more toxic than UV-12"},
      {"measurement": "Weight recovery of infected mice", "setting": "[4]", "value": "did not recover their weight as well"}
    ]},
    {"smiles": "COC(=O)CCCCCCCCN1C[C@H](O)[C@@H](O)[C@H](O)[C@H]1CO", "note": "[UV-10]", "values": [
      {"measurement": "Survival without a viral challenge", "setting": "[1]", "value": 100, "unit": "%"},
      {"measurement": "Survival versus untreated/vehicle control group", "setting": "[2]", "value": "did not show any improvement in survival"},
      {"measurement": "MTD", "setting": "[2]", "value": 7.5, "unit": "days"},
      {"measurement": "Survival rate", "setting": "[2]", "value": 0, "unit": "%"}
    ]},
    {"smiles": "OCC1C(O)C(O)C(O)CN1CCCCCCCCC1CCCO1", "note": "(mixture of isomers) [UV-12]", "values": [
      {"measurement": "Survival compared to control animals", "setting": "[5]", "value": "increased survival"},
      {"measurement": "% Survival", "setting": "[4]; 40 mg/kg TID IG for 10 days", "value": 20, "unit": "%"},
      {"measurement": "Mean Survival", "setting": "[4]; 40 mg/kg TID IG for 10 days", "value": 9, "unit": "days"},
      {"measurement": "% Survival", "setting": "[4]; 100 mg/kg TID IG for 10 days", "value": 100, "unit": "%"},
      {"measurement": "Mean Survival", "setting": "[4]; 100 mg/kg TID IG for 10 days", "value": ">13", "unit": "days"},
      {"measurement": "Health score recovery of infected mice", "setting": "[4]; FIG. 4", "value": "fully recovered from the infection and returned to normal"},
      {"measurement": "Weight recovery of infected mice", "setting": "[4]", "value": "almost completely recovered"},
      {"measurement": "Recovery after dosing regimen completed, uninfected mice", "setting": "[1]", "value": "able to fully recover"},
      {"measurement": "Toxicity in the uninfected group", "setting": "[1]", "value": "mild toxicity with steady weight loss"},
      {"measurement": "Weight loss overall in uninfected mice", "setting": "[1]", "value": "≤ 10", "unit": "%"},
      {"measurement": "Survival without a viral challenge", "setting": "[1]", "value": 100, "unit": "%"},
      {"measurement": "Survival versus untreated/vehicle control group", "setting": "[2]", "value": "significant increase in survival"},
      {"measurement": "Survival rate", "setting": "[2]", "value": 90, "unit": "%"},
      {"measurement": "Overall temperature and weight versus vehicle control", "setting": "[2]; 100 mg/kg oral TID, infected mice", "value": "significant increases in overall temperature and weight"}
    ]}
  ]
}
